US20050245399A1, “Pyrazole derivatives as herbicidal compositions containing them” (ISHIHARA SANGYO KAISHA, LTD., priority 2004, published 2005)

system: corn (Zea mays L.): ZEAMX; experiment: Test Example 1 pre-emergence herbicidal activity, ZEAMX; type: in vivo; conditions: Rate 63 g a.i./ha, visually observed 20th to 23rd day after application
Outline: (§1)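 Compound was delivered by small sprayer to sown upland soil one day after sowing, before emergence, at 500 L/ha spray volume. Plant growth was assessed visually around 3 weeks later (days 20–23), 100% denoting complete kill.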

**Q.** `COc1ccc(COC(=O)Nc2c(OC)c(Cl)cc(F)c2-c2nn(C)c(OC(F)F)c2Cl)cc1` [Compound 1-56] was tested. Which “Pre-emergence Herbicidal Activity ZEAMX (growth controlling degree)” value did it give?
**A.** 10%

system: soybean (Glycine max Merr.), GLXMA; experiment: Test Example 2 post-emergence (foliage treatment) herbicidal activity, GLXMA; type: in vivo; conditions: 63 g a.i./ha
Outline: (§2)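 Each species was evaluated for growth suppression by eye, 0% matching untreated and 100% meaning death, some 20 to 23 days after a single post-emergence foliar treatment applied in 500 L/ha of water carrying 0.1% (v/v) agricultural spreader.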

**Q.** For `COc1ccc(COC(=O)Nc2c(OC)c(Cl)cc(F)c2-c2nn(C)c(OC(F)F)c2Cl)cc1` [Compound 1-56], which “growth controlling degree, GLXMA” value is on record?
**A.** 100%

system: redroot pigweed (Amaranthus retroflexus L.): AMARE; experiment: Test Example 1 pre-emergence herbicidal activity, AMARE; type: in vivo; conditions: Rate 63 g a.i./ha, visually observed 20th to 23rd day after application
Outline: as §1

**Q.** `COc1ccc(COC(=O)Nc2c(OC)c(Cl)cc(F)c2-c2nn(C)c(OC(F)F)c2Cl)cc1` [Compound 1-56] was tested. Which “Pre-emergence Herbicidal Activity AMARE (growth controlling degree)” value did it give?
**A.** 100%

system: japanese ribbon wapato (Sagittaria pygmaea: SA GPY); experiment: Test Example 3 water application herbicidal activity (paddy), SAGPY; type: in vivo; conditions: 63 g a.i./ha, water application under submerged condition, tubers planted, visually observed 14th day after application; 0 = untreated control, 100 = complete kill
Outline: (§3)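 Compound, as diluted wettable powder or emulsifiable concentrate, was pipetted into flood water at a set active-ingredient dose. Weeds were treated at 0.5-leaf stage after sowing or tuber planting; 2-leaf rice 4 days post-transplant. Control scored visually, 0 untreated to 100 complete kill, weeds day 14, rice day 21.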

**Q.** For `COc1ccc(COC(=O)Nc2c(OC)c(Cl)cc(F)c2-c2nn(C)c(OC(F)F)c2Cl)cc1` [Compound 1-56], which “growth controlling degrees (%) SAGPY” value is on record?
**A.** 80%

system: velvetleaf (Abutilon theophrasti): ABUTH; experiment: Test Example 1 pre-emergence herbicidal activity, ABUTH; type: in vivo; conditions: Rate 63 g a.i./ha, visually observed 20th to 23rd day after application
Outline: as §1

**Q.** `COc1ccc(COC(=O)Nc2c(OC)c(Cl)cc(F)c2-c2nn(C)c(OC(F)F)c2Cl)cc1` [Compound 1-56] was tested. Which “Pre-emergence Herbicidal Activity ABUTH (growth controlling degree)” value did it give?
**A.** 60%

system: barnyardgrass (Echinochloa crus-galli L.): ECHCG; experiment: Test Example 1 pre-emergence herbicidal activity, ECHCG; type: in vivo; conditions: Rate 63 g a.i./ha, visually observed 20th to 23rd day after application
Outline: as §1

**Q.** For `COc1ccc(COC(=O)Nc2c(OC)c(Cl)cc(F)c2-c2nn(C)c(OC(F)F)c2Cl)cc1` [Compound 1-56], which “Pre-emergence Herbicidal Activity ECHCG (growth controlling degree)” value is on record?
**A.** 50%

system: green foxtail (Setaria viridis L.): SETVI; experiment: Test Example 1 pre-emergence herbicidal activity, SETVI; type: in vivo; conditions: Rate 63 g a.i./ha, visually observed 20th to 23rd day after application
Outline: as §1

**Q.** For `COc1ccc(COC(=O)Nc2c(OC)c(Cl)cc(F)c2-c2nn(C)c(OC(F)F)c2Cl)cc1` [Compound 1-56], which “Pre-emergence Herbicidal Activity SETVI (growth controlling degree)” value is on record?
**A.** 80%

system: corn (Zea mays L.), ZEAMX; experiment: Test Example 2 post-emergence (foliage treatment) herbicidal activity, ZEAMX; type: in vivo; conditions: 63 g a.i./ha
Outline: as §2

**Q.** Which “growth controlling degree, ZEAMX” value does the source give for `COc1ccc(COC(=O)Nc2c(OC)c(Cl)cc(F)c2-c2nn(C)c(OC(F)F)c2Cl)cc1` [Compound 1-56] here?
**A.** 80%

system: prickly sida (Sida spinosa L.): SEDSP; experiment: Test Example 1 pre-emergence herbicidal activity, SIDSP; type: in vivo; conditions: Rate 63 g a.i./ha, visually observed 20th to 23rd day after application
Outline: as §1

**Q.** `COc1ccc(COC(=O)Nc2c(OC)c(Cl)cc(F)c2-c2nn(C)c(OC(F)F)c2Cl)cc1` [Compound 1-56] was tested. Which “Pre-emergence Herbicidal Activity SIDSP (growth controlling degree)” value did it give?
**A.** 70%

system: green foxtail (Setaria viridis L.), SETVI; experiment: Test Example 2 post-emergence (foliage treatment) herbicidal activity, SETVI; type: in vivo; conditions: 63 g a.i./ha
Outline: as §2

**Q.** Which “growth controlling degree, SETVI” value does the source give for `COc1ccc(COC(=O)Nc2c(OC)c(Cl)cc(F)c2-c2nn(C)c(OC(F)F)c2Cl)cc1` [Compound 1-56] here?
**A.** 100%

system: prickly sida (Sida spinosa L.), SIDSP; experiment: Test Example 2 post-emergence (foliage treatment) herbicidal activity, SIDSP; type: in vivo; conditions: 63 g a.i./ha
Outline: as §2

**Q.** With `COc1ccc(COC(=O)Nc2c(OC)c(Cl)cc(F)c2-c2nn(C)c(OC(F)F)c2Cl)cc1` [Compound 1-56] as the compound, how does the “growth controlling degree, SIDSP” value read?
**A.** 100%

system: wheat (Triticum aestivum L.): TRZAX; experiment: Test Example 1 pre-emergence herbicidal activity, TRZAX; type: in vivo; conditions: Rate 63 g a.i./ha, visually observed 20th to 23rd day after application
Outline: as §1

**Q.** With `COc1ccc(COC(=O)Nc2c(OC)c(Cl)cc(F)c2-c2nn(C)c(OC(F)F)c2Cl)cc1` [Compound 1-56] as the compound, how does the “Pre-emergence Herbicidal Activity TRZAX (growth controlling degree)” value read?
**A.** 0%

system: barnyardgrass (Echinochloa crus-galli L.), ECHCG; experiment: Test Example 2 post-emergence (foliage treatment) herbicidal activity, ECHCG; type: in vivo; conditions: 63 g a.i./ha
Outline: (§4)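 Greenhouse pot test with upland field soil. Treatment: foliage spray, active ingredient at a predetermined amount, 500 L/ha, spreader 0.1% (v/v); leaf stage 0.1-1.5 (AMARE), 1.1-2.1 (ECHCG), 1.0-2.0 (DIGSA), 1.0-2 (ORYSA). Endpoint: visual % control, d20-23.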

**Q.** How did the “growth controlling degree, ECHCO” value turn out when `COc1ccc(COC(=O)Nc2c(OC)c(Cl)cc(F)c2-c2nn(C)c(OC(F)F)c2Cl)cc1` [Compound 1-56] was run?
**A.** 90%

system: rice (Oryza sativa L.), ORYSA; experiment: Test Example 2 post-emergence (foliage treatment) herbicidal activity, ORYSA; type: in vivo; conditions: 63 g a.i./ha
Outline: as §4

**Q.** Which “growth controlling degree, ORYSA” value does the source give for `COc1ccc(COC(=O)Nc2c(OC)c(Cl)cc(F)c2-c2nn(C)c(OC(F)F)c2Cl)cc1` [Compound 1-56] here?
**A.** 90%

system: velvetleaf (Abutilon theophrasti), ABUTH; experiment: Test Example 2 post-emergence (foliage treatment) herbicidal activity, ABUTH; type: in vivo; conditions: 63 g a.i./ha
Outline: as §2

**Q.** How did the “growth controlling degree, ABUTH” value turn out when `COc1ccc(COC(=O)Nc2c(OC)c(Cl)cc(F)c2-c2nn(C)c(OC(F)F)c2Cl)cc1` [Compound 1-56] was run?
**A.** 100%

system: barnyardgrass (Echinochiloa oryzicola: ECHOR); experiment: Test Example 3 water application herbicidal activity (paddy), ECHOR; type: in vivo; conditions: 63 g a.i./ha, water application under submerged condition at 0.5 leaf stage, visually observed 14th day after application; 0 = untreated control, 100 = complete kill
Outline: as §3

**Q.** For `COc1ccc(COC(=O)Nc2c(OC)c(Cl)cc(F)c2-c2nn(C)c(OC(F)F)c2Cl)cc1` [Compound 1-56], which “growth controlling degrees (%) ECHOR” value is on record?
**A.** 100%

system: crabgrass (Digitaria sanguinalis L.): DIGSA; experiment: Test Example 1 pre-emergence herbicidal activity, DIGSA; type: in vivo; conditions: Rate 63 g a.i./ha, visually observed 20th to 23rd day after application
Outline: as §1

**Q.** Which “Pre-emergence Herbicidal Activity DIGSP (growth controlling degree)” value does the source give for `COc1ccc(COC(=O)Nc2c(OC)c(Cl)cc(F)c2-c2nn(C)c(OC(F)F)c2Cl)cc1` [Compound 1-56] here?
**A.** 70%

system: japanese bulrush (Scirpus juncoides: SCPJO); experiment: Test Example 3 water application herbicidal activity (paddy), SCPJO; type: in vivo; conditions: 63 g a.i./ha, water application under submerged condition at 0.5 leaf stage, visually observed 14th day after application; 0 = untreated control, 100 = complete kill
Outline: as §3

**Q.** `COc1ccc(COC(=O)Nc2c(OC)c(Cl)cc(F)c2-c2nn(C)c(OC(F)F)c2Cl)cc1` [Compound 1-56] was tested. Which “growth controlling degrees (%) SCPJO” value did it give?
**A.** 95%

system: soybean (Glycine max Merr.): GLXMA; experiment: Test Example 1 pre-emergence herbicidal activity, GLXMA; type: in vivo; conditions: Rate 63 g a.i./ha, visually observed 20th to 23rd day after application
Outline: as §1

**Q.** `COc1ccc(COC(=O)Nc2c(OC)c(Cl)cc(F)c2-c2nn(C)c(OC(F)F)c2Cl)cc1` [Compound 1-56] was tested. Which “Pre-emergence Herbicidal Activity GLXMA (growth controlling degree)” value did it give?
**A.** 0%

system: redroot pigweed (Amaranthus retroflexus L.), AMARE; experiment: Test Example 2 post-emergence (foliage treatment) herbicidal activity, AMARE; type: in vivo; conditions: 63 g a.i./ha
Outline: as §4

**Q.** Which “growth controlling degree, AMARE” value does the source give for `COc1ccc(COC(=O)Nc2c(OC)c(Cl)cc(F)c2-c2nn(C)c(OC(F)F)c2Cl)cc1` [Compound 1-56] here?
**A.** 100%

system: wheat (Triticum aestivum L.), TRZAX; experiment: Test Example 2 post-emergence (foliage treatment) herbicidal activity, TRZAX; type: in vivo; conditions: 63 g a.i./ha
Outline: as §2

**Q.** `COc1ccc(COC(=O)Nc2c(OC)c(Cl)cc(F)c2-c2nn(C)c(OC(F)F)c2Cl)cc1` [Compound 1-56] was tested. Which “growth controlling degree, TRZAX” value did it give?
**A.** 50%

system: rice (Oryza sativa L.): ORYSA; experiment: Test Example 1 pre-emergence herbicidal activity, ORYSA; type: in vivo; conditions: Rate 63 g a.i./ha, visually observed 20th to 23rd day after application
Outline: as §1

**Q.** Which “Pre-emergence Herbicidal Activity ORYSA (growth controlling degree)” value does the source give for `COc1ccc(COC(=O)Nc2c(OC)c(Cl)cc(F)c2-c2nn(C)c(OC(F)F)c2Cl)cc1` [Compound 1-56] here?
**A.** 20%

system: rice (Oryza sativa L.: ORYSA); experiment: Test Example 3 water application herbicidal activity (paddy), transplanted rice ORYSA; type: in vivo; conditions: 63 g a.i./ha, water application 4th day after transplantation of 2 leaf stage rice, visually observed 21st day after application; 0 = untreated control, 100 = complete kill
Outline: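 Submerged application in flooded paddy soil (3–4 cm water); weeds treated at 0.5-leaf stage, transplanted rice 4 d after transplanting. Scored visually as % growth control: weeds at 14 d, rice at 21 d.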

**Q.** For `COc1ccc(COC(=O)Nc2c(OC)c(Cl)cc(F)c2-c2nn(C)c(OC(F)F)c2Cl)cc1` [Compound 1-56], which “growth controlling degrees (%) ORYSA” value is on record?
**A.** 35%

system: crabgrass (Digitaria sanguinalis L.), DIGSA; experiment: Test Example 2 post-emergence (foliage treatment) herbicidal activity, DIGSA; type: in vivo; conditions: 63 g a.i./ha
Outline: as §4

**Q.** For `COc1ccc(COC(=O)Nc2c(OC)c(Cl)cc(F)c2-c2nn(C)c(OC(F)F)c2Cl)cc1` [Compound 1-56], which “growth controlling degree, DIGSP” value is on record?
**A.** 98%
